This is an account of results in patent US8063095B2, “IAP BIR domain binding compounds” (Pharmascience Inc., priority 2005, dated 2011).

pEC50, pIC50, pKi: −log10 of the molar value.

In assay [1] the test system is MDA-MB-231 (breast) cancer cells. Nature of the assay: Cell viability (MTT) assay, MDA cells. The conditions noted are these: Homo sapiens, MTT based assay. As for the experimental part: (§1) MDA-MD-231 (breast) and SKOV-3 (ovarian) cancer cells were cultured in RPMI1640 media supplemented with 10% FBS and 100 units/mL of Penicillin and Steptomycin.
(§2) Viability assays were done on a number of cells including MDA-MB-231, SKOV-3, H460, PC3, HCT-116, and SW480 cells. Cells were seeded in 96 well plates at a respective density of 5000 and 2000 cells per well and incubated at 37° C. in presence of 5% CO2 for 24 hours. Selected compounds were diluted into the media at various concentration ranging from 0.01 uM up to 100 uM. Diluted compounds were added onto the MDA-MB-231 cells. For the MDA-MB-231 SKOV3, H460, PC3, HCT-116, and SW480 cells, the compounds were added either alone or in presence of 1-3 ng/ml of TRAIL. After 72 hours cellular viability was evaluated by MTT based assays.
A general note: Tetrazolium dyes change colour on reduction, which living cells bring about.

The target of assay [2] is T1, XIAP bir3 domain (GST-XIAP BIR3RING) (Homo sapiens, UniProt P98170).
T1 construct: made in house; host or cells: E. coli DH5-alpha
T1 sequence (P98170 246-497): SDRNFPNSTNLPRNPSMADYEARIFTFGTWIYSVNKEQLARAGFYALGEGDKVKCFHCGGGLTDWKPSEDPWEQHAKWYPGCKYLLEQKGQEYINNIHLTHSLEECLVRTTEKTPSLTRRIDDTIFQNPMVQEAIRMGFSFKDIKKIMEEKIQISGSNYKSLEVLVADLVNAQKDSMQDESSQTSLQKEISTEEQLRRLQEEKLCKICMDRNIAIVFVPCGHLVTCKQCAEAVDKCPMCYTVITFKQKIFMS
Nature of the assay: Fluorescence polarization-based competition assay, XIAP. The assay is classed as binding. The following applies: Ki calculated from displacement of fluorescent probe; read-out: Fluorescent polarization (FP) assay Xiap. How it is done:
GST-XIAP BIR3RING: XIAP coding sequence amino acids 246-497 cloned into PGEX2T1 via BamH1 and AVA I. The plasmid was transformed into E. coli DH5a for use in protein expression and purification.
A fluorescent peptide probe, Fmoc-Ala-Val-Pro-Phe-Tyr(t-Bu)-Leu-Pro-[…]-Gly-OH was prepared using standard Fmoc chemistry on 2-chlorotrityl chloride resin (Int. J. Pept. Prot. Res. 38:555-561, 1991). Cleavage from the resin was performed using 20% acetic acid in dichloromehane (DCM), which left the side chain still blocked. The C-terminal protected carboxylic acid was coupled to 4′-(aminomethy)fluorescein (Molecular Probes, A-1351; Eugene, Oreg.) using excess diisopropylcarbodiimide (DIC) in dimethylformamide (DMF) at room temperature and was purified by silica gel chromatography (10% methanol in DCM). The N-terminal Fmoc protecting group was removed using piperidine (20%) in DMF, and purified by silica gel chromatography (20% methanol in DCM, 0.5% HOAc). Finally, the t-butyl side chain protective groups were removed using 95% trifluoroacetic acid containing 2.5% water and 2.5% triisopropyl silane.
For all assays, the fluorescence and fluorescence-polarization was evaluated using a Tecan Polarion instrument with the excitation filter set at 485 nm and the emission filter set at 535 nm. For each assay, the concentration of the target protein was first establish by titration of the selected protein in order to produce a linear dose-response signal when incubated alone in the presence of the fluorescent probe. Upon establishing these conditions, the compounds potency (IC50) and selectivity, was assessed in the presence of a fix defined amount of target protein and fluorescent probe and a 10 point serial dilution of the selected compounds. For each IC50 curve, the assays were run as followed: 25 ul/well of diluted compound in 50 mM MES buffer pH 6.5 were added into a black 96 well plate then 25 ul/well of bovine serum albumin (BSA) at 0.5 mg/ml in 50 mM MES pH 6.5. Auto-fluorescence for each compound was first assessed by performing a reading of the compound/BSA solution alone. Then 25 ul of the fluorescein probe diluted into 50 mM MES containing 0.05 mg/ml BSA were added and a reading to detect quenching of fluorescein signal done. Finally 25 ul/well of the target or control protein (GST-BIRs) diluted at the appropriate concentration in 50 mM MES containing 0.05 mg/ml BSA were added and the fluorescence polarization evaluated.
For each assay the relative polarization-fluorescence units were plotted against the final concentrations of compound and the IC50 calculated using the Grad pad prism software and/or Cambridge soft. The ki value were derived from the calculated IC50 value as described above and according to the equation described in Nikolovska-Coleska, Z. (2004) Anal Biochem 332, 261-273.

Assay [3] addresses T2, XIAP L-Bir2-Bir3 (GST-XIAP Linker Bir2Bir3RING fusion protein) (Homo sapiens, UniProt P98170).
T2 construct: made in house; host or cells: E. coli DH5-alpha
Nature of the assay: Caspase de-repression assay using cellular extracts (apoptosome), L-Bir2-Bir3 XIAP. The assay is classed as biochemical. The following applies: 293 cell S100 extract; effective concentration to achieve 50% of activation. As for the experimental part:
GST-linker BIR2BIR3Ring: XIAP coding sequence from amino acids 93-497 cloned into PGex4T1 via BamH1 and XhoI. Amino acids 93-497 were amplified from full length XIAP in pGex4t3, using the primers: […] and GCTGCATGTGTGTCAGAGG, using standard PCR conditions. The PCR fragment was TA cloned into pCR-2.1 (invitrogen). Linker BIR2BIR3Ring was subcloned into pGex4T1 by BamHI/XhoI digestion. The plasmid was transformed into E. coli DH5α for use in protein expression and purification. […]
100 ug of 293 cell S100 extract and 0.25 uM-2 uM of GST-XIAP fusion protein (XIAP-Bir3RING, XIAP-Linker Bir2Bir3RING, or full-length XIAP) were co-incubated with serial dilutions of compound (40 uM-5 pM). Caspases present in the extracts were activated by adding 1 mM dATP, 0.1 mM ALLN, 133 ug Cytochrome C (final concentrations), and incubating at 37° C. for 25 minutes. All reactions and dilutions used S100 buffer (50 mM Pipes pH 7.0, 50 mM KCl, 0.5 mM EGTA pH 8.0, 2 mM MgCl2 supplemented with 1/1000 dilutions of 2 mg/ml Cytochalisin B, 2 mg/ml Chymotstatin, Leupeptin, Pepstatin, Antipain, 0.1M PMSF, 1M DTT). Final reaction volume was 30 ul. Caspase-3 activity was measured by overlaying 30 ul of a 0.4 mM DEVD-AMC solution. released AMC cleavage was measured in a TECAN spectrophotometer at 360 nm excitation and 444 nm emission, on a kinetic cycle of 1 hour with readings taken every 5 minutes. Caspase activity was calculated as Vo of AMC fluorescence/sec. Caspase de-repression by our compounds was compared to fully activated extract and activated extract repressed by the presence of XIAP fusion protein.

Assay [4] concerns SKOV-3 (ovarian) cancer cells. The assay can be described thus: Cell viability (MTT) assay, SKOV3 cells. The conditions noted are these: 72 hours, MTT based assay; compounds added either alone or in presence of 1-3 ng/ml of TRAIL. How it is done:
as §1, §2

T2 sequence (P98170 93-497): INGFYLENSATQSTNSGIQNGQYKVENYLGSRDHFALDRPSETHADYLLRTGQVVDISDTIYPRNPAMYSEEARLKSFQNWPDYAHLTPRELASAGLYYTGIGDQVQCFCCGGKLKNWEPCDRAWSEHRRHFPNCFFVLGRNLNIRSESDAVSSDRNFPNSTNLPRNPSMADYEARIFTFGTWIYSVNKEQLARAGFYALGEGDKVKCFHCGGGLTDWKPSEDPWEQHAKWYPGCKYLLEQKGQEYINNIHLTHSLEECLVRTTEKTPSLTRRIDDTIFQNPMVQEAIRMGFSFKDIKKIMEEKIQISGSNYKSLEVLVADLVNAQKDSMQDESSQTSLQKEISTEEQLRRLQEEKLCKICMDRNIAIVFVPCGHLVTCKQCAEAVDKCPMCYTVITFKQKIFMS

Take `CN[C@@H](C)C(=O)N[C@@H](COC(=O)CCCCCC(=O)OC[C@H](NC(=O)[C@H](C)NC)C(=O)N1CCC[C@H]1CN(CCc1ccccc1)C(=O)c1ccccc1)C(=O)N1CCC[C@H]1CN(CCc1ccccc1)C(=O)c1ccccc1` [Compound 13]: the pEC50 (in general, the EC50 on a negative log10 scale, so that one unit is a factor of ten) in assay [1] (MDA-MB-231, 72 h) is greater than 6.00. For the same molecule, the pKi in assay [2] was no less than 7.00.
Molecule `CN[C@@H](C)C(=O)N[C@H](C(=O)N1CCC[C@H]1CN(CCc1ccccc1)S(C)(=O)=O)[C@@H](C)OCC#CC#CCO[C@H](C)[C@H](NC(=O)[C@H](C)NC)C(=O)N1CCC[C@H]1CN(CCc1ccccc1)S(C)(=O)=O` [Compound 8] showed a pEC50 in assay [1] (MDA-MB-231, 72 h) greater than 7.00. In addition, the pIC50 – broadly, the IC50 on a negative log10 scale, so that one unit is a factor of ten – in assay [3] was no less than 6.30. Besides, the pKi in assay [2] was no less than 8.30.
As to `CN[C@@H](C)C(=O)N[C@H](C(=O)N1CCC[C@H]1CN(CCc1ccccc1)S(=O)(=O)c1ccccc1)[C@@H](C)OCC#CC#CCO[C@H](C)[C@H](NC(=O)[C@H](C)NC)C(=O)N1CCC[C@H]1CN(CCc1ccccc1)S(=O)(=O)c1ccccc1` [Compound 4], the pEC50 in assay [1] (MDA-MB-231, 72 hours) is greater than 7.00. In assay [3], this molecule gave a pIC50 of no less than 6.30. The pKi in assay [2] was no less than 8.30.
Taken in the same sequence, the figures for `CN[C@@H](C)C(=O)N[C@H](C(=O)N1CCC[C@H]1CN(CCc1ccccc1)C(=O)OCc1ccccc1)[C@@H](C)OCC#CC#CCO[C@H](C)[C@H](NC(=O)[C@H](C)NC)C(=O)N1CCC[C@H]1CN(CCc1ccccc1)C(=O)OCc1ccccc1` [Compound 7] were greater than 7.00, no less than 6.30 and no less than 7.00.
In the case of `CN[C@@H](C)C(=O)N[C@@H](CCCNC(=O)NCCC[C@H](NC(=O)[C@H](C)NC)C(=O)N1CCC[C@H]1CN(CCc1ccccc1)S(=O)(=O)c1ccc(F)cc1)C(=O)N1CCC[C@H]1CN(CCc1ccccc1)S(=O)(=O)c1ccc(F)cc1` [Compound 42], the pEC50 in assay [4] is less than 6.00.
Consider `CN[C@@H](C)C(=O)N[C@H](C(=O)N1CCC[C@H]1CN(CCc1ccccc1)S(C)(=O)=O)[C@@H](C)OCCCCCCO[C@H](C)[C@H](NC(=O)[C@H](C)NC)C(=O)N1CCC[C@H]1CN(CCc1ccccc1)S(C)(=O)=O` [Compound 37], for which the pEC50 in assay [4] was greater than 7.00.
On the same count and under the same terms, to `CN[C@@H](C)C(=O)NC(CCCNC(=O)c1ccc(C(=O)NCCC[C@H](NC(=O)[C@H](C)NC)C(=O)N2CCC[C@H]2CN(CCc2ccccc2)C(=O)C(F)(F)F)cc1)C(=O)N1CCC[C@H]1CN(CCc1ccccc1)C(=O)C(F)(F)F` (stereo partly drawn) [Compound 39] belongs greater than 6.00.
For `CN[C@@H](C)C(=O)N[C@H](C(=O)N1CCC[C@H]1CN(CCc1ccccc1)S(=O)(=O)Cc1ccccc1)[C@@H](C)OCC#CC#CCO[C@H](C)[C@H](NC(=O)[C@H](C)NC)C(=O)N1CCC[C@H]1CN(CCc1ccccc1)S(=O)(=O)Cc1ccccc1` [Compound 6], the pEC50 in assay [1] (MDA-MB-231, 72 hours) is greater than 7.00. The pIC50 in assay [3] was no less than 6.30. Besides, the pKi in assay [2] is no less than 8.30.
On to `CN[C@@H](C)C(=O)N[C@@H](CCCNC(=O)c1ccc(C(=O)NCCC[C@H](NC(=O)[C@H](C)NC)C(=O)N2CCC[C@H]2CN(CCc2ccccc2)S(=O)(=O)c2ccc(F)cc2)cc1)C(=O)N1CCC[C@H]1CN(CCc1ccccc1)S(=O)(=O)c1ccc(F)cc1` [Compound 45], for which the pEC50 in assay [4] is greater than 6.00.
In assay [1] (MDA-MB-231, 72 h), `CN[C@@H](C)C(=O)N[C@@H](COC(=O)c1ccc(C(=O)OC[C@H](NC(=O)[C@H](C)NC)C(=O)N2CCC[C@H]2CN(CCc2ccccc2)C(=O)c2ccccc2)cc1)C(=O)N1CCC[C@H]1CN(CCc1ccccc1)C(=O)c1ccccc1` [Compound 14] had a pEC50 greater than 6.00. Moreover, the pKi in assay [2] was no less than 7.00.
Consider `CN[C@@H](C)C(=O)N[C@H](C(=O)N1CCC[C@H]1CN(CCc1ccccc1)C(=O)C(F)(F)F)[C@@H](C)OCCCCCCO[C@H](C)[C@H](NC(=O)[C@H](C)NC)C(=O)N1CCC[C@H]1CN(CCc1ccccc1)C(=O)C(F)(F)F` [Compound 36], for which the pEC50 in assay [4] was greater than 7.00.
